Data reported in patent publication US10202361B2, “Pyridazinones as herbicides” (E I DU PONT DE NEMOURS AND COMPANY, priority 2014, dated 2019).
Like-named read-outs stand apart in the source and are kept apart here.

Experiments:
Assay type in all cases: in vivo
[1] = system: chickweed (common chickweed, Stellaria media); test: Test C postemergence greenhouse herbicide test
Source text: At the same time, plants selected from these crop and weed species and also barley (winter barley, Hordeum vulgare), canarygrass (Phalaris minor), windgrass (Apera spica-venti), deadnettle (henbit deadnettle, Lamium amplexicaule), and chickweed (common chickweed, Stellaria media) were planted in pots containing Redi-Earth® planting medium (Scotts Company, 14111 Scottslawn Road, Marysville, Ohio 43041) comprising spaghnum peat moss, vermiculite, wetting agent and starter nutrients and treated with postemergence applications of test chemicals formulated in the same manner. Plants ranged in height from 2 to 18 cm (1- to 4-leaf stage) for postemergence treatments. Treated plants and controls were maintained in a greenhouse for 13 to 15 d, after which time all species were compared to controls and visually evaluated. Plant response ratings, summarized in Table C, are based on a scale of 0 to 100 where 0 is no effect and 100 is complete control. A dash (-) response means no test result.

[2] = system: foxtail, giant (giant foxtail, Setaria faberii); test: Test A pre-/postemergence greenhouse herbicide test; conditions: Setaria faberi, 240 h, 0 to 100 scale (0 no effect, 100 complete control), approx. 10 d, read-out: Plant response rating, Foxtail, Giant; for pest or weed control at 125 g/ha: 125 g ai/ha; for pest or weed control at 500 g/ha: 500 g ai/ha
Method in brief: (§1)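 Pre + post applications, simultaneous; formulation = non-phytotoxic solvent mix incl. surfactant. Post: 1–2 leaf stage, 2–10 cm. Soil: loam/sand. Greenhouse ~10 d, visual rating 0 (no effect) to 100 (complete control) vs untreated.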

corn (Zea mays) = test: as above; conditions: Zea mays, 240 h, 0 to 100 scale (0 no effect, 100 complete control), approx. 10 d; for Corn plant response rating (crop injury, 0 = no effect, 100 = complete kill) at 125 g/ha: 125 g ai/ha; for Corn plant response rating (crop injury, 0 = no effect, 100 = complete kill) at 500 g/ha: 500 g ai/ha
Method in brief: as §1

[3] = system: velvetleaf (Abutilon theophrasti); test: as above; conditions: Abutilon theophrasti, 240 h, 0 to 100 scale (0 no effect, 100 complete control), approx. 10 d, read-out: Plant response rating, Velvetleaf; for pest or weed control at 125 g/ha: 125 g ai/ha; for pest or weed control at 500 g/ha: 500 g ai/ha
Method in brief: as §1

[4] = system: morningglory (Ipomoea spp.); test: as above; conditions: Ipomoea, 240 h, 0 to 100 scale (0 no effect, 100 complete control), approx. 10 d, read-out: Plant response rating, Morningglory; for pest or weed control at 125 g/ha: 125 g ai/ha; for pest or weed control at 500 g/ha: 500 g ai/ha
Method in brief: as §1

[5] = system: barnyardgrass (Echinochloa crus-galli); test: as above; conditions: Echinochloa crus-galli, 240 h, 0 to 100 scale (0 no effect, 100 complete control), approx. 10 d, read-out: Plant response rating, Barnyardgrass; for pest or weed control at 125 g/ha: 125 g ai/ha; for pest or weed control at 500 g/ha: 500 g ai/ha
Method in brief: as §1

[6] = system: sedge, umbrella (small-flower umbrella sedge, Cyperus difformis); test: Test B flooded paddy test; conditions: Cyperus difformis, 312 h, Flood, scale of 0 to 100, 0 is no effect, 100 is complete control, 13 to 15 d, read-out: Plant response rating, Sedge, Umbrella
Method in brief: (§2)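 2-leaf plants; pots flooded 3 cm over soil, compound dosed into floodwater, depth kept constant. Greenhouse, 13–15 d. Visual rating vs controls, 0 (no effect) to 100 (complete control); dash = not tested.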

rice (Oryza sativa) = test: Test B flooded paddy test; conditions: Oryza sativa, 312 h, Flood, scale of 0 to 100, 0 is no effect, 100 is complete control, 13 to 15 d, read-out: Plant response rating, Rice
Method in brief: as §2

[7] = system: ducksalad (Heteranthera limosa); test: Test B flooded paddy test; conditions: Heteranthera limosa, 312 h, Flood, scale of 0 to 100, 0 is no effect, 100 is complete control, 13 to 15 d, read-out: Plant response rating, Ducksalad
Method in brief: as §2

[8] = system: barnyardgrass (Echinochloa crus-galli); test: Test B flooded paddy test; conditions: Echinochloa crus-galli, 312 h, Flood, scale of 0 to 100, 0 is no effect, 100 is complete control, 13 to 15 d, read-out: Plant response rating, Barnyardgrass
Method in brief: as §2

Row | Compound | Plant response rating ([1]; 31 g ai/ha) | Plant response rating ([1]; 62 g ai/ha) | Plant response rating ([1]; 125 g ai/ha) | Plant response rating ([1]; 250 g ai/ha) | pest or weed control at 125 g/ha ([2]; post-emergence, Postemergence) [%] | pest or weed control at 500 g/ha ([2]; post-emergence, Postemergence) [%] | pest or weed control at 125 g/ha ([2]; pre-emergence, Preemergence) [%] | pest or weed control at 500 g/ha ([2]; pre-emergence, Preemergence) [%] | Corn plant response rating (crop injury, 0 = no effect, 100 = complete kill) at 125 g/ha (corn (Zea mays); post-emergence, Postemergence) [%] | Corn plant response rating (crop injury, 0 = no effect, 100 = complete kill) at 500 g/ha (corn (Zea mays); post-emergence, Postemergence) [%] | Corn plant response rating (crop injury, 0 = no effect, 100 = complete kill) at 125 g/ha (corn (Zea mays); pre-emergence, Preemergence) [%] | Corn plant response rating (crop injury, 0 = no effect, 100 = complete kill) at 500 g/ha (corn (Zea mays); pre-emergence, Preemergence) [%] | pest or weed control at 125 g/ha ([3]; post-emergence, Postemergence) [%] | pest or weed control at 500 g/ha ([3]; post-emergence, Postemergence) [%] | pest or weed control at 125 g/ha ([3]; pre-emergence, Preemergence) [%] | pest or weed control at 500 g/ha ([3]; pre-emergence, Preemergence) [%] | pest or weed control at 125 g/ha ([4]; post-emergence, Postemergence) [%] | pest or weed control at 500 g/ha ([4]; post-emergence, Postemergence) [%] | pest or weed control at 125 g/ha ([4]; pre-emergence, Preemergence) [%] | pest or weed control at 500 g/ha ([4]; pre-emergence, Preemergence) [%] | also measured
1 | Cc1cc(Oc2ccnc(C(F)(F)F)c2)nn(-c2ccc(C(F)(F)F)cc2)c1=O [Compound 6, 4-methyl-2-[4-(trifluoromethyl)phenyl]-6-[[2-(trifluoromethyl)-4-pyridinyl]oxy]-3(2H)-pyridazinone] | 80 | 95 | 95 | 98 | 80 | 100 | 100 | 100 | 40 | 50 | 10 | 20 | 100 | 100 | 70 | 80 | 80 | 100 | 80 | 90 | pest or weed control at 125 g/ha ([5]; post-emergence, Postemergence): 50%; pest or weed control at 500 g/ha ([5]; post-emergence, Postemergence): 90%; pest or weed control at 125 g/ha ([5]; pre-emergence, Preemergence): 40%; pest or weed control at 500 g/ha ([5]; pre-emergence, Preemergence): 80%; pest or weed control at 125 g/ha ([6]; 125 g ai/ha): 0%; plant injury at 125 g/ha (rice (Oryza sativa); 125 g ai/ha): 0%; pest or weed control at 125 g/ha ([7]; 125 g ai/ha): 0%; pest or weed control at 125 g/ha ([8]; 125 g ai/ha): 0%
2 | Cc1cc(=O)n(-c2ccc(F)cc2)nc1Oc1ccnc(C(F)(F)F)c1 [Compound 14, 2-(4-fluorophenyl)-5-methyl-6-[[2-(trifluoromethyl)-4-pyridinyl]oxy]-3 (2H)-pyridazinone] | 35 | 35 | 35 | 55 | 90 | 90 | 90 | 90 | 50 | 70 | 0 | 50 | 80 | 90 | 30 | 100 | 90 | 100 | 80 | 100 | pest or weed control at 125 g/ha ([5]; post-emergence, Postemergence): 80%; pest or weed control at 500 g/ha ([5]; post-emergence, Postemergence): 90%; pest or weed control at 125 g/ha ([5]; pre-emergence, Preemergence): 70%; pest or weed control at 500 g/ha ([5]; pre-emergence, Preemergence): 100%; pest or weed control at 250 g/ha ([6]; 250 g ai/ha): 75%; plant injury at 250 g/ha (rice (Oryza sativa); 250 g ai/ha): 30%; pest or weed control at 250 g/ha ([7]; 250 g ai/ha): 75%; pest or weed control at 250 g/ha ([8]; 250 g ai/ha): 40%
